Reference: patent US20070049518A1, “Novel method of treatment of inflammatory skin conditions” (priority 2005, published 2007)

Assays:
aureolysin = aureolysin (Staphylococcus aureus, UniProt P81177); assay: Inhibition of aureolysin-mediated pro-uPA activation; conditions: for Relative activity: Aureolysin 1 μg/ml, pH 5.6
Source text: Under these conditions the extent of pro-uPA cleavage as assessed by uPA activity was directly proportional to the concentration of aureolysin in the assay.

[1] = target: T1, recombinant human cathepsin D (Homo sapiens, UniProt P07339); assay: Selectivity profile, cathepsin D; type: biochemical; conditions: read-out: inhibition at 0.1 mM, Cathepsin D
T1 construct: recombinant human cathepsin D (R&D Systems Inc); purchased R&D Systems Inc
T1 sequence (P07339 65-412): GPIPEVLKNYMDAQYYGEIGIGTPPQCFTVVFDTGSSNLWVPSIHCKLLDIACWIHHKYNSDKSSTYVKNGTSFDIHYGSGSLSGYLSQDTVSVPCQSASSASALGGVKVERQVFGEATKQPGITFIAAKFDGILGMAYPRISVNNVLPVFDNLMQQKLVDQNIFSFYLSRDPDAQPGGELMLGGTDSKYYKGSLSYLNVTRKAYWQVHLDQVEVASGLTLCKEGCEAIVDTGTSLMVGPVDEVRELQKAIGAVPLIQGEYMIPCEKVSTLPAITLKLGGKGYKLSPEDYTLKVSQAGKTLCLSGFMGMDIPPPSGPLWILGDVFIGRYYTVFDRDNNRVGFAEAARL
Procedure: Inhibitory activity was tested in reaction mixtures (0.1 ml) containing 2% (v/v) DMSO vehicle±compound plus additions as follows. V8 protease: 90 mM MOPS (sodium) buffer pH 7.0, […] calcium chloride, 0.045% Brij 35, 10 μM Mca-Leu-Glu-Val-Asp-Gly-Trp-Lys(Dnp)-amide (Bachem) and V8 (BioCentrum Ltd; 30 ng). Staphopain A and B: 90 mM MOPS (sodium) buffer pH 7.0, 1.8 mM cysteine-HCl (pH-adjusted with NaOH), 0.045% Brij 35, 0.1 mM Z-Phe-Arg-AMC hydrochloride (Bachem) and staphopain A or B (BioCentrum Ltd; 30 ng). Human kallikrein 5: 0.1M sodium phosphate buffer pH 8.0, 0.045% Brij 35, 0.1 mM Boc-Val-Pro-Arg-AMC (Sigma) and recombinant human kallikrein 5 (R&D Systems Inc; 6 ng). Human kallikrein 7: 72 mM Tris-HCl pH 8.0, 0.033% Brij 35, 1.2 mM S-2586 (Chromogenix Instrumentation Laboratory SpA) and recombinant human kallikrein 7 (R&D Systems Inc; 0.6 μg) that had been thermolysin-activated according to the manufacturer's instructions. Human angiotensin-converting enzyme (ACE): 45 mM MES (sodium) buffer pH 6.5, 0.045% Brij 35, 10 μM Mca-[…]Dnp)-OH(R&D Systems Inc) and recombinant human ACE (R&D Systems Inc; 1.3 ng). Human cathepsin D: 0.1M sodium acetate buffer pH 3.5, 0.2M sodium chloride, 0.045% Brij 35, 10 μM Mca-Pro-Leu-Gly-Leu-Dap(Dnp)-Ala-Arg-amide (Bachem) and recombinant human cathepsin D (R&D Systems Inc; 8 ng) activated according to the manufacturer's instructions. […]

[2] = system: protease activity in skin wash samples from patients with acute AD; assay: Zymographic analysis of skin wash samples; type: biochemical, human; conditions: 50 μM; gelatin zymogram gel; 6 samples acute AD
Procedure: A method has been developed to evaluate protease activity in skin washings. Skin washings from patients with acute eczema may be obtained by aspirating 0.5 ml sterile physiological saline over the skin surface using a sterile, disposable plastic Pasteur pipette The skin area (˜1 cm^2) is defined by a sterile open-ended plastic cylinder. Samples were transferred to 0.05 ml 0.55 M MOPS buffer pH 7.0, 55 mM calcium chloride and 0.2% Brij 35, mixed, centrifuged to remove debris and frozen at −70° C. pending analysis.
Zymographic analysis of the protease content of the samples may be done by mixing with 0.2 volume 0.2M Tris-HCl pH 6.8 containing 37.5% (v/v) glycerol and 2.5% sodium dodecylsulphate followed by electrophoresis through a gelatin zymogram gel (Invitrogen Corporation) according to the manufacturer's instructions. Gels were washed in 2.5% (w/v) Triton X-100 in 25 mM MOPS buffer pH 7 with or without compound 11 (50 μM) and developed overnight at 37° C. in 0.1M MOPS buffer pH 7 containing 5 mM calcium chloride with or without compound 11 (50 μM). Zones of clearing due to proteolytic activity may be identified by staining with Coomassie Brilliant Blue R followed by destaining in 40% (v/v) methanol/10% (v/v) acetic acid. […]

aureolysin, sequence (P81177 209-509): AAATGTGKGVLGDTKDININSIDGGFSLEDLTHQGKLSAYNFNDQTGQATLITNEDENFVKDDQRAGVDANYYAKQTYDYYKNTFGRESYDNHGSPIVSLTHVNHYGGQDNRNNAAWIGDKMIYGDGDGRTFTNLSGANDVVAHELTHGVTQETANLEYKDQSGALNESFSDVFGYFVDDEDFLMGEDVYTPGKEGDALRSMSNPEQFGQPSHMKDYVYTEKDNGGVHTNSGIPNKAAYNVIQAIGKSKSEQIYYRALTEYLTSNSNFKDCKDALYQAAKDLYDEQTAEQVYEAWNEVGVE

## CNC(=O)[C@@H](NC(=O)[C@H](CC(=O)NO)CC(C)C)C(C)(C)C [Compound 12, (S)—N1-((S)-3,3-dimethyl-1-(methylamino)-1-oxobutan-2-yl)-N4-hydroxy-2-isobutylsuccinamide]
aureolysin
  IC50: 2.4 µM
aureolysin; Compound 12 25 μM
  Relative activity: 37%
aureolysin; Compound 12 317 μM
  Relative activity: 8%
[1]
  inhibition at 100 µM: 1%

## CNC(=O)[C@@H](NC(=O)[C@@H](CC(=O)NO)CC(C)C)C(C)(C)C [Compound 11, (R)—N1-((S)-3,3-dimethyl-1-(methylamino)-1-oxobutan-2-yl)-N4-hydroxy-2-isobutylsuccinamide]
[2]
  inhibition of protease activity in skin wash samples, zymography (in words): significant inhibition of protease activity
